Results taken from patent US20090131356A1, “miR-15, miR-26, miR-31, miR-145, miR-147, miR-188, miR-215, miR-216, miR-331, mmu-miR-292-3P REGULATED GENES AND PATHWAYS AS TARGETS FOR THERAPEUTIC INTERVENTION” (ASURAGEN, INC., priority 2006, published 2009).

Assays:
PPC-1 cells = assay: Alamar Blue proliferation assay, PPC-1; assay type: cell-based, human; conditions: 30 nM, normalized to negative control miRNA (100% proliferation)
Excerpt: (§1) The inventors assessed the therapeutic effect of hsa-miR-147 for prostate cancer by using 4 individual human prostate cancer cell lines. To measure cellular proliferation of prostate cancer cells, the following prostate cancer cell lines were used: PPC-1 and PC3, derived from a bone metastasis; Du145, derived from a brain metastasis; RWPE2, derived from prostate cells immortalized by human papillomavirus 18 and transformed by the K-RAS oncogene (Bello et al., 1997; Stone et al., 1978; Brothman et al., 1991). PC3, PPC-1, and Du145 cells lack expression of the prostate-specific antigen (PSA) and are independent of androgen receptor (AR) signaling. In contrast, RWPE2 cells test positive for PSA and AR.
(§2) PPC-1, Du145 and RWPE2 cells were transfected with synthetic hsa-miR-147 (Pre-miR™-hsa-miR-147, Ambion cat. no. AM17100) or negative control miRNA (NC; Pre-miR™ microRNA Precursor Molecule-Negative Control #2; Ambion cat. no. AM17111) in a 96-well format using a lipid-based transfection reagent. […] Proliferation was assessed 4-7 days post-transfection using Alamar Blue™ (Invitrogen) following the manufacturer's instructions. […] Fluorescent light units (FLU) were measured after 3 hours, normalized to the control, and plotted as percent change in proliferation. […]

[1] = tested on: metastatic lung cancer cells; assay: Alamar Blue proliferation assay, average over metastatic luciferase-expressing lung cancer cell lines; assay type: cell-based, human; conditions: average of 5 metastatic luc lung cancer cell lines; vs negative control miRNA (=100%); 72 hours
Excerpt: The inventors assessed the therapeutic effect of hsa-miR-147 for lung cancer by using 12 individual lung cancer cell lines. To measure cellular proliferation of lung cancer cells, the following parental non-small cell lung cancer (NSCLC) cells were used: cells derived from lung adenocarcinoma (A549, H1299, H522, H838, Calu-3, HCC827, HCC2935), cells derived from lung squamous cell carcinoma (H520, H226), cells derived from lung adenosquamous cell carcinoma (H596), cells derived from lung bronchioalveolar carcinoma (H1650), and cells derived from lung large cell carcinoma (H460). In addition to these parental cell lines, highly metastatic NSCLC cells were used that stably express the firefly luciferase gene: A549-luc, H460-luc, HCC827-luc, H1650-luc, H441-luc. Unlike the parental cell lines, these metastatic cells readily migrate to distant sites of the test animal and form metastases upon subcutaneous, orthotopic, or intravenous injection. Synthetic hsa-miR-147 or negative control miRNA was delivered via lipid-based transfection into A549, H1299, H522, H838, Calu-3, HCC827, HCC2935, H520, H596, H1650, H460, A549-luc, H460-luc, HCC827-luc, H1650-luc, H441-luc cells and via electroporation into H226 cells. […]

A549 and H1299 cells = assay: Dose-dependent Alamar Blue proliferation assay (0 pM to 3 nM); assay type: cell-based, human; conditions: for % proliferation: normalized to mock-transfected cells (0 pM miRNA)
Protocol: The inventors determined sensitivity and specificity of hsa-miR-147 by administering hsa-miR-147 or negative control miRNA at increasing concentrations, ranging from 0 pM to 3 nM. Delivery of miRNA and cellular proliferation of A549 and H1299 cells was assessed as described above. Alamar Blue values were normalized to values obtained from mock-transfected cells (0 pM=100% proliferation). As shown in FIG. 3 and Table 8, increasing amounts of negative control miRNA had no effect on cellular proliferation of A549 or H1299 cells. In contrast, the growth-inhibitory phenotype of hsa-miR-147 is dose-dependent and correlates with increasing amounts of hsa-miR-147. Hsa-miR-147 induces a therapeutic response at concentrations as low as 300 pM.

[2] = tested on: human prostate cancer cells PPC-1, Du145 and RWPE2; assay: Alamar Blue proliferation assay, average over prostate cancer cell lines; assay type: cell-based; conditions: 30 nM, 4-7 days post-transfection; average of PPC-1, Du145, RWPE2; vs negative control miRNA (100%)
Excerpt: as §1, §2

In the case of “hsa-miR-147: Synthetic pre-miR-147 (Ambion AM17100; Dharmacon in vivo); mature sequence GUGUGUGGAAAUGCUUCUGC, MIMAT0000251, SEQ ID NO:114 (synthetic pre-miR (Ambion/Dharmacon), chemistry not given here; listed as Homo sapiens)”, the “% proliferation” value (PPC-1 cells) is reported as 76.98%, the “inhibition of cell growth, on average” value [1] is reported as 42% and the “% proliferation” value (A549 and H1299 cells; A549 Cells, 3 pM) is reported as 104.77%. The “% proliferation” value (A549 and H1299 cells; A549 Cells, 30 pM) was 99.22%, the “% proliferation” value (A549 and H1299 cells; A549 Cells, 300 pM) was 88.24% and the “% proliferation” value (A549 and H1299 cells; A549 Cells, 3,000 pM) was 75.78%. The “% proliferation” value (A549 and H1299 cells; H1299 Cells, 3 pM) was 93.08%, the “% proliferation” value (A549 and H1299 cells; H1299 Cells, 30 pM) was 88.20% and the “% proliferation” value (A549 and H1299 cells; H1299 Cells, 300 pM) was 81.82%. For the same substance, the “% proliferation” value (A549 and H1299 cells; H1299 Cells, 3,000 pM) was 69.70%, the “lowest concentration inducing a therapeutic response” value (A549 and H1299 cells; concentrations 0 pM to 3 nM, normalized to mock-transfected cells) was 300 pM and the “inhibition of cellular proliferation, on average” value [2] was 27.48%.
